Measurements published in ChEMBL document CHEMBL1140693, “4,5-diarylisoxazole Hsp90 chaperone inhibitors: potential therapeutic agents for the treatment of cancer” (J Med Chem, 2008).
pIC50: −log10 of the molar value.

What was measured:
[1] = molecular target: Heat shock protein HSP90 (Homo sapiens, UniProt P07900+P08238)
Description: Displacement of fluorescent labelled VER-00051001 from human Hsp90-beta by FP assay

[2] = test system: HCT-116; assay: cells; conditions: Homo sapiens, HCT-116, 24 h
Description: Growth inhibition of human HCT116 cells after 24 hrs by SRB assay

[3] = AUClast in human HCT116 cells bearing NCr athymic mouse at 4 mg/kg, cassette dosing; type: ADME, organism-based, HCT-116; design: time 0 - last, dose 4 mg/kg; conditions: in vivo
[4] = test system: DU-145; assay: Growth inhibition of human DU145 cells by SRB assay; type: functional
[5] = Growth inhibition of human U87MG cells by SRB assay; type: functional, U-87MG ATCC; conditions: U-87 MG
[6] = Apparent clearance in human HCT116 cells bearing NCr athymic mouse at 4 mg/kg, cassette dosing; type: ADME, organism-based, HCT-116; design: dose 4 mg/kg; conditions: in vivo
[7] = Terminal half life in human HCT116 cells bearing NCr athymic mouse at 4 mg/kg, cassette dosing; type: ADME, organism-based, HCT-116; design: dose 4 mg/kg; conditions: in vivo, read-out: t1/2 lambda z (converted)
[8] = test system: SF-268; assay: Growth inhibition of human SF268 cells by SRB assay; type: functional
[9] = Cmax in human HCT116 cells bearing NCr athymic mouse at 4 mg/kg, cassette dosing; type: ADME, organism-based, HCT-116; design: dose 4 mg/kg; conditions: in vivo
[10] = Growth inhibition of human PC3M cells by SRB assay; type: functional; conditions: PC-3M
[11] = test system: SK-MEL-28; assay: Growth inhibition of human SKMel28 cells by SRB assay; type: functional
[12] = Tmax in human HCT116 cells bearing NCr athymic mouse at 4 mg/kg, cassette dosing; type: ADME, organism-based, HCT-116; design: dose 4 mg/kg; conditions: in vivo
[13] = Apparent terminal-phase volume of distribution (Vz/F) in human HCT116 cells bearing NCr athymic mouse at 4 mg/kg, cassette dosing; conditions: in vivo
[14] = test system: HCT-116; assay: Inhibition of tumor growth in human HCT116 cells bearing mouse assessed as tumor weight at 50 mg/kg, ip qd after 12 days relative to control; conditions: HCT-116, ip, 288 h

SMILES	pIC50 [1]	GI50 [2] [nM]	IC50 [1] [nM]	also measured
Oc1cc(O)c(-c2n[nH]cc2N2CCN(Cc3ccccc3)CC2)cc1Cl	6.22	6500	–	–
CCNC(=O)c1noc(-c2cc(Cl)c(O)cc2O)c1-c1ccc(OC)cc1	–	120	–	AUC(0-t) [3]: 1.73 µM·h; GI50 [4]: 230 nM; GI50 [5]: 28 nM; CL/F [6]: 1.27 mL/min; half-life [7]: 3.9 h; GI50 [8]: 34 nM; Cmax [9]: 482 nM; GI50 [10]: 220 nM; GI50 [11]: 45 nM; Tmax [12]: 1 h; Vz/F [13]: 0.432 L
CCNC(=O)c1noc(-c2cc(C(C)C)c(O)cc2O)c1-c1ccc(CN(CC)CC)cc1	–	6	6	–
CCNC(=O)c1noc(-c2cc(CC)c(O)cc2OC)c1-c1ccc(CN2CCOCC2)cc1	–	2150	540	–
CCNC(=O)c1noc(-c2cc(CC)c(OC)cc2OC)c1-c1ccc(CN2CCOCC2)cc1	–	32000	1560	–
CCNC(=O)c1[nH]nc(-c2cc(Cl)c(O)cc2O)c1-c1ccc(CN(CC)CC)cc1	–	315	146	–
CCNC(=O)c1[nH]nc(-c2cc(Cl)c(O)cc2O)c1-c1ccc(CNC(=O)C2CCCN(C)C2)cc1 (configuration not stated)	–	3470	115	–
CCNC(=O)c1[nH]nc(-c2cc(Cl)c(O)cc2O)c1-c1ccc(CN2CCOCC2)cc1	–	290	37	–
CCNC(=O)c1[nH]nc(-c2cc(Cl)c(O)cc2O)c1-c1cccc(CN2CCOCC2)c1	–	2690	222	–
CCNC(=O)c1[nH]nc(-c2cc(Cl)c(O)cc2O)c1-c1cccc(CNCCN2CCCCC2)c1	–	25100	1000	–
CCNC(=O)c1[nH]nc(-c2cc(Cl)c(O)cc2O)c1-c1cccc(CNCCN2CCOCC2)c1	–	12500	431	–
CCNC(=O)c1[nH]nc(-c2cc(Cl)c(O)cc2O)c1-c1cccc(CN2CCC(CO)CC2)c1	–	> 80000	2630	–
CCNC(=O)c1[nH]nc(-c2cc(Cl)c(O)cc2O)c1-c1cccc(CN2CCN(C(C)=O)CC2)c1	–	32700	1290	–
CCNC(=O)c1noc(-c2cc(C(C)(C)C)c(O)cc2O)c1-c1ccc(CN2CCCCC2)cc1	–	65	11	–
CCNC(=O)c1noc(-c2cc(Cl)c(O)cc2O)c1-c1ccc(CN2CCS(=O)(=O)CC2)cc1	–	470	21	–
CCNC(=O)c1noc(-c2cc(Cl)c(O)cc2O)c1-c1ccc(CNCCS(C)(=O)=O)cc1	–	1980	14	–
CCNC(=O)c1noc(-c2cc(Cl)c(O)cc2O)c1-c1ccc(CN(CC)CC)cc1	–	56	64	–
CCNC(=O)c1noc(-c2cc(Cl)c(O)cc2O)c1-c1ccc(CN2CCCCC2)cc1	–	61	19	–
CCNC(=O)c1noc(-c2cc(Cl)c(O)cc2O)c1-c1ccc(CN2CCC(O)CC2)cc1	–	1290	28	–
CCNC(=O)c1noc(-c2cc(Cl)c(O)cc2O)c1-c1ccc(CN(C)C)cc1	–	69	18	–
CCNC(=O)c1noc(-c2cc(Cl)c(O)cc2O)c1-c1cccc(N2CCOCC2)c1	–	634	127	–
CCNC(=O)c1noc(-c2cc(CCc3ccccc3)c(O)cc2O)c1-c1ccc(CN2CCOCC2)cc1	–	29	32	–
CCNC(=O)c1noc(-c2cc(CC)c(O)cc2O)c1-c1ccc(CN(CC)CC)cc1	–	41	13	–
CC(=O)c1ccc(CNC(=O)c2c[nH]nc2-c2cc(Cl)c(O)cc2O)cc1	–	11600	258	–
CCNC(=O)c1noc(-c2cc(CCc3ccc(F)cc3)c(O)cc2O)c1-c1ccc(CN2CCOCC2)cc1	–	39	20	–
CCNC(=O)c1noc(-c2cc(CCc3cccc(F)c3)c(O)cc2O)c1-c1ccc(CN2CCOCC2)cc1	–	58	26	–

SMILES	pIC50 [1]	GI50 [2] [nM]	IC50 [1] [nM]	also measured
CCNC(=O)c1noc(-c2cc(-c3ccccc3)c(O)cc2O)c1-c1ccc(CN2CCOCC2)cc1	–	152	22	–
CCNC(=O)c1noc(-c2cc(-c3ccccc3C)c(O)cc2O)c1-c1ccc(CN2CCCCC2)cc1	–	114	14	–
CCNC(=O)c1noc(-c2cc(-c3ccc(F)cc3)c(O)cc2O)c1-c1ccc(CN2CCCCC2)cc1	–	35	36	–
CCNC(=O)c1n[nH]c(-c2cc(Cl)c(O)cc2O)c1-c1ccc(OC)cc1	–	–	–	GI50 [4]: 1200 nM; GI50 [5]: 1200 nM; GI50 [8]: 320 nM; GI50 [10]: 2200 nM; GI50 [11]: 480 nM
CCNC(=O)c1noc(-c2cc(Cl)c(O)cc2O)c1-c1ccc(CN2CCOCC2)cc1	–	83	–	–
CCNC(=O)c1[nH]nc(-c2cc(Cl)c(O)cc2O)c1-c1ccc(CN2CCS(=O)(=O)CC2)cc1	–	826	27	–
CCNC(=O)c1[nH]nc(-c2cc(Cl)c(O)cc2O)c1-c1ccc(CN(CCO)CCO)cc1	–	7800	142	–
CCc1cc(-c2[nH]nc(C)c2-c2ccc3c(c2)OCCO3)c(O)cc1O	–	5800	–	–
CCNC(=O)c1[nH]nc(-c2cc(Cl)c(O)cc2O)c1-c1cccc(CNCCOC)c1	–	12900	728	–
CCNC(=O)c1noc(-c2cc(C(C)(C)C)c(O)cc2O)c1-c1ccc(CN2CCOCC2)cc1	–	70	8	AUC(0-t) [3]: 0.751 µM·h; CL/F [6]: 1.85 mL/min; half-life [7]: 5 h; Cmax [9]: 203 nM; Tmax [12]: 1 h; Vz/F [13]: 0.809 L
CCNC(=O)c1[nH]nc(-c2cc(Cl)c(O)cc2O)c1-c1cccc(CN2CCC[C@H]2CO)c1	–	11400	1660	–
CCNC(=O)c1noc(-c2cc(-c3ccccc3F)c(O)cc2O)c1-c1ccc(CN2CCOCC2)cc1	–	87	39	–
CCNC(=O)c1noc(-c2cc(Cl)c(O)cc2O)c1-c1cccc(N2CCN(C)CC2)c1	–	2780	343	–
CCNC(=O)c1noc(-c2cc(CC)c(O)cc2O)c1-c1ccc(CN2CCOCC2)cc1	–	25	29	–
CCNC(=O)c1noc(-c2cc(-c3ccccc3)c(O)cc2O)c1-c1ccc(CN2CCCCC2)cc1	–	86	14	AUC(0-t) [3]: 0.995 µM·h; CL/F [6]: 1.03 mL/min; half-life [7]: 7.3 h; Cmax [9]: 237 nM; Tmax [12]: 1 h; Vz/F [13]: 0.652 L
CCNC(=O)c1noc(-c2cc(-c3ccccc3)c(O)cc2O)c1-c1ccc(CN(CC)CC)cc1	–	91	74	AUC(0-t) [3]: 1.25 µM·h; CL/F [6]: 0.583 mL/min; half-life [7]: 14.6 h; Cmax [9]: 252 nM; Tmax [12]: 4 h; Vz/F [13]: 0.736 L
CCNC(=O)c1noc(-c2cc(Cl)c(O)cc2O)c1-c1ccc(CN2CCN(C)CC2)cc1	–	125	39	–
CCNC(=O)c1[nH]nc(-c2cc(Cl)c(O)cc2O)c1-c1ccc(CNCCS(C)(=O)=O)cc1	–	2160	35	–
CCNC(=O)c1[nH]nc(-c2cc(Cl)c(O)cc2O)c1-c1ccc(CNC(=O)C[C@@H]2CCCN2)cc1	–	275	57	–
CCNC(=O)c1[nH]nc(-c2cc(Cl)c(O)cc2O)c1-c1cccc(CNCc2ccccc2C(F)(F)F)c1	–	3110	231	–
CCNC(=O)c1[nH]nc(-c2cc(Cl)c(O)cc2O)c1-c1cccc(CN(C)CCO)c1	–	9240	914	–
CCNC(=O)c1noc(-c2cc(Cl)c(O)cc2O)c1-c1ccc(CN2CCCC2)cc1	–	118	39	–
CCNC(=O)c1noc(-c2cc(CC)c(OC)cc2O)c1-c1ccc(CN2CCOCC2)cc1	–	80	15	–
CCNC(=O)c1noc(-c2cc(CCc3ccc(F)cc3)c(O)cc2O)c1-c1ccc(CN2CCCCC2)cc1	–	29	26	–
CCNC(=O)c1noc(-c2cc(C(C)C)c(O)cc2O)c1-c1ccc(CN2CCOCC2)cc1 [LUMINESPIB]	–	–	–	AUC(0-t) [3]: 1.72 µM·h; GI50 [4]: 5 nM; GI50 [5]: 8 nM; CL/F [6]: 0.583 mL/min; half-life [7]: 9.5 h; GI50 [8]: 6 nM; Cmax [9]: 385 nM; GI50 [10]: 6 nM; GI50 [11]: 5 nM; T/C at 50 mg/kg [14]: 49.8%; Tmax [12]: 1 h; Vz/F [13]: 0.478 L
C=CCNC1=C2C[C@@H](C)C[C@H](OC)[C@H](O)[C@@H](C)/C=C(\C)[C@H](OC(N)=O)[C@@H](OC)/C=C\C=C(/C)C(=O)NC(=CC1=O)C2=O [TANESPIMYCIN]	–	160	–	–
